In patent publication US7700655B2, “Antiallergic agents” (Institute of Medicinal Molecular Design, Inc., priority 2002, dated 2010):

Tests used:
[1] = system: B cells isolated from mouse spleen; test: IgE production inhibitory test of spleen B cell (ELISA); type: cell-based; conditions: 0.1 μM; rmIL-4 200 U/ml + soluble mCD40 ligand 100 ng/ml, 9 days; no-drug control 45.6
Description: IgE Production Inhibitory Test of Spleen B Cell
B cells isolated from mouse spleen were cultured with 200 U/ml of rmIL-4 and 100 ng/ml of soluble mCD40 ligand in the presence or absence of a test drug in PRMI 1640 medium containing 10% of bovine fetal serum for 9 days, and the amount of IgE in the culture medium was measured by ELISA method.

NC/Nga mouse [2] = test: Immediate type allergy reaction inhibitory test (ear swelling test); type: in vivo; conditions: 15 mg/kg intraperitoneally, picryl chloride on auricle; FIG. 1
Description: Immediate Type Allergy Reaction Inhibitory Test (Ear Swelling Test)
To NC/Nga mouse sensitized by an intravenous administration of anti DNP-IgE, a diluent with a test compound for the drug administered group or that without a test drug for the control group was intraperitoneally administered. Two hours after the administration, picryl chloride dissolved in olive oil was applied to auricle to induce immediate allergy, and then swelling of the auricle was measured with passage of time for comparison of the drug administered group and the control group.

HT-1080 cells = test: Proliferation inhibitory test of fibrosarcoma (HT-1080) under PDGF stimulation (MTT assay); type: cell-based; conditions: 48 hours
Description: Proliferation Inhibitory Test of Fibrosarcoma (HT-1080) Under PDGF Stimulation
HT-1080 cells were cultured for 2 hours in EMEM medium containing 1% of FBS and NEAA in the presence or absence of a test substance. PDGF was added and the cells were cultured for 48 hours, and the proliferation of the cells was measured by MTT assay.

[3] = system: Bone marrow-derived cultured mast cells of NC/Nga mouse; test: Proliferation inhibitory test of mast cell under stimulation by SCF and IL-3; type: cell-based; conditions: rmIL-3 100 U/ml + SCF 100 ng/ml, living cells by trypan blue
Description: Proliferation Inhibitory Test of Mast Cell Under Stimulation by SCF and IL-3
Bone marrow-derived cultured mast cells (10^5 cells/ml) of NC/Nga mouse were cultured with rmIL-3 (100 U/ml) and SCF (100 ng/ml) in the presence or absence of a test drug in α-Modified Eagle's Medium containing 10% of bovine fetal serum without phenol red, and then stained with trypan blue, and the number of living cells was counted.

[4] = system: mouse bone marrow-derived cultured mast cells (BMCMC); test: Degranulation inhibitory test of mast cell (β-hexosaminidase release); type: cell-based; conditions: 1 h, anti DNP IgE / DNP-BSA 50 ng/ml stimulation, 60 minutes, read-out: Inhibitory Ration of Degranulation(%) at 10 μM Drug Concentration
Description: Degranulation Inhibitory Test of Mast Cell
Anti DNP IgE was added to mouse bone marrow-derived cultured mast cells (BMCMC) which were treated beforehand with anti DNP IgE for 4 days for expression of IgE receptor. The cells were cultured for 3 days, and treated for 1 hour with or without the addition of a test substance. Then, the medium was changed to α-Modified Eagle's Medium containing 10% of bovine fetal serum without phenol red. After cultivation for 60 minutes with rmIL-3 (100 U/ml) and DNP-BSA (50 ng/ml) in the presence or absence of the test substance, the concentrations of β-hexosaminidase in the culture medium and in the cells were determined, and the progress of degranulation was measured from a ratio of the amounts. The inhibitory ratio of the degranulation by the drug was calculated when degranulation in the absence of the test substance was taken as 100%, and degranulation in the presence of anti DNP-IgE only and in the absence of the test substance was taken as 0%.

NC/Nga mouse [5] = test: Dermatitis inhibitory test by atopic dermatitis model using NC/Nga mouse; type: in vivo; conditions: ointment containing 1% applied once a day; FIG. 2
Description: Dermatitis Inhibitory Test by Atopic Dermatitis Model Using NC/Nga Mouse
To the conventional NC/Nga mouse with the onset of severe dermatitis, an ointment containing 1% of a test substance for the drug treated group or a base material of the ointment for the control group was applied once a day, and clinical symptoms were recorded as scores with passage of day. Furthermore, the amounts of IgE in blood before and after the test were measured by ELISA.

SMILES | Inhibitory Ratio of Proliferation(%) (HT-1080 cells; Drug Concentration 250 nM) | Inhibitory Ratio of Proliferation(%) (HT-1080 cells; Drug Concentration 500 nM) | inhibition at 10 µM [4] [%] | other results
O=C(Nc1cc(C(F)(F)F)cc(C(F)(F)F)c1)c1cc(Cl)ccc1O [compound 50, N-[3,5-Bis(trifluoromethyl)phenyl]-5-chloro-2-hydroxybenzamide] | 65.4 | 96.6 | > 99 | Amount of IgE [1]: 24 ng/mL; effect against immediate type allergy (swelling of the auricle) (NC/Nga mouse [2]): inhibitory effect; Number of Cell ([3]; 1 μM, culture time 0 hr): 100000 mL⁻¹; Number of Cell ([3]; 1 μM, culture time 24 hr): 86000 mL⁻¹; Number of Cell ([3]; 1 μM, culture time 48 hr): 84000 mL⁻¹; Number of Cell ([3]; 1 μM, culture time 72 hr): 116000 mL⁻¹; Number of Cell ([3]; 5 μM, culture time 0 hr): 100000 mL⁻¹; Number of Cell ([3]; 5 μM, culture time 24 hr): 70000 mL⁻¹; Number of Cell ([3]; 5 μM, culture time 48 hr): 52000 mL⁻¹; Number of Cell ([3]; 5 μM, culture time 72 hr): 22000 mL⁻¹; effect against dermatitis with an atopic dermatitis model (clinical symptom scores) (NC/Nga mouse [5]): inhibitory effect
CC(C)(C)c1ccc(O)c(C(=O)Nc2cc(C(F)(F)F)cc(C(F)(F)F)c2)c1 [compound 56, N-[3,5-Bis(trifluoromethyl)phenyl]-5-[(1,1-dimethyl)ethyl]-2-hydroxybenzamide] | 37.5 | 96.9 | 92 | 
O=C(Nc1cc(C(F)(F)F)cc(C(F)(F)F)c1)c1cc(-n2cccc2)ccc1O [compound 71] | 57.9 | 83.1 |  | 
O=C(Nc1cc(C(F)(F)F)ccc1C(F)(F)F)c1cc(Cl)ccc1O [compound 100, N-[2,5-bis(trifluoromethyl)phenyl]-5-chloro-2-hydroxybenzamide] |  |  | 83 | 
O=C(Nc1cc(C(F)(F)F)ccc1Cl)c1cc(Cl)ccc1O [compound 113, 5-chloro-N-[2-chloro-5-(trifluoromethyl)phenyl]-2-hydroxybenzamide] |  |  | 93 | 
CC(=O)Oc1ccccc1C(=O)Nc1cc(Cl)cc(Cl)c1 [compound 172, 2-acetoxy-N-(3,5-dichlorophenyl)benzamide] |  |  |  | melting point: 218 to 219 °C
CC(C)(C)C(=O)c1sc(NC(=O)c2cc(Cl)ccc2O)nc1C(C)(C)C [compound 195, 5-Chloro-N-{4-[(1,1-dimethyl)ethyl]-5-[(2,2-dimethyl)propionyl]thiazol-2-yl}-2-hydroxybenzamide] | 44.7 | 81.7 | 72 | 
CC(C)(C)c1nc(NC(=O)c2cc(Br)ccc2O)sc1N1CCOCC1 [compound 199, 5-Bromo-N-{4-[(1,1-dimethyl)ethyl]-5-morpholinothiazol-2-yl}-2-hydroxybenzamide] | 26.2 | 24.2 |  | 
CC(C)(C)c1nc(NC(=O)c2cc(Br)ccc2O)sc1N1CCN(c2ccccc2)CC1 [compound 201, 5-Bromo-N-{4-[(1,1-dimethyl)ethyl]-5-(4-phenylpiperazin-1-yl)thiazol-2-yl}-2-hydroxybenzamide] | 60.3 | 76.2 |  | 
O=C(Nc1cc(C(F)(F)F)ccc1C(F)(F)F)c1cc(Br)ccc1O [compound 552] | 24.0 | 19.4 |  | 
